The values below come from patent EP0552417B1, “Cyclic peptides and use thereof” (priority 1991, dated 1993).

For data set [1] the following is noted: amide bond; 18-membered ring; HONB/DCC preactivation; HCl; DIEA; DMF; 4.75 mM; 3 steps.
For data set [2] the following is noted: amide bond, DCC/HONB (active ester), TEA, DMF, 16.0 h, 4 steps.
Data set [3] has as its target T1, endothelin receptor A (ETA) (Sus scrofa, UniProt Q29010).
T1 construct: A membrane fraction prepared from the porcine heart; from tissue; host or cells: porcine heart membrane fraction
T1 sequence (Q29010 21-427): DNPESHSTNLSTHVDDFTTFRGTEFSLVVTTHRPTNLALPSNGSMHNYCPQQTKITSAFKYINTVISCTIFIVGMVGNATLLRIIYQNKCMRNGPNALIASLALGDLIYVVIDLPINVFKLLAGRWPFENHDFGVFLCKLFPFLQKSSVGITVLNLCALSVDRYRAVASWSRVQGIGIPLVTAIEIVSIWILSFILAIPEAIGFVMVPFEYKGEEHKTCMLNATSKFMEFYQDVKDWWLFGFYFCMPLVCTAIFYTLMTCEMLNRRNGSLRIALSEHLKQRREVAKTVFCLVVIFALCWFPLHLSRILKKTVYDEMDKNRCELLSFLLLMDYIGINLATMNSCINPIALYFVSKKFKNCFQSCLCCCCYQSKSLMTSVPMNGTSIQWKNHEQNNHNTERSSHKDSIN
Description: Assay of affinity for receptor (1): binding activity on ETA receptor, 125I-labeled endothelin-1, porcine heart membrane fraction. Also noted: key: relative specific activity; reference cyclic pentapeptide ETA binding = 1.0. Conditions: specific activity, taking the binding activity of control cyclo[-D-Glu-Ala-D-aIle-Leu-D-Trp-] on receptor A as 1.0, 25°C, 1 hour. Put shortly:
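Porcine heart membranes (0.15 mg/ml) incubated with 125I-endothelin-1 and test peptide for 1 h at 25°C, then centrifuged; pellet-bound radioactivity counted by gamma counter. Values given as specific activity relative to reference cyclo[-D-Glu-Ala-D-aIle-Leu-D-Trp-], set at 1.0.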

For another data set, the system named is ETB. The data set is described as follows: ETB radio receptor assay *2, 125I-endothelin-1, guinea pig kidney crude membrane fraction. It counts as binding, Guinea pigs. Conditions: relative activity, 37 °C, 90 minutes. Put shortly:
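Radioligand binding used crude guinea pig kidney membranes (2.1 µg protein) with 740 Bq 125I-endothelin-1. Incubation was 90 min at 37 °C in 50 mM Tris-HCl pH 7.4, 0.1 mM PMSF, 1 mM EDTA, 0.2% BSA. Bound radioactivity was collected by GF/B filtration and measured by gamma counting.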

The target in a further data set is T2, NK2 receptor (Bos taurus, UniProt P05363).
T2 construct: The membrane fraction containing the receptor was prepared from the inner wall of the bovine third stomach; tissue Kyoto Chuo Chikusan Fukuseibutsu Oroshi Kyoukai (tissue); host or cells: inner wall of bovine third stomach, membrane fraction
T2 sequence (P05363 1-384): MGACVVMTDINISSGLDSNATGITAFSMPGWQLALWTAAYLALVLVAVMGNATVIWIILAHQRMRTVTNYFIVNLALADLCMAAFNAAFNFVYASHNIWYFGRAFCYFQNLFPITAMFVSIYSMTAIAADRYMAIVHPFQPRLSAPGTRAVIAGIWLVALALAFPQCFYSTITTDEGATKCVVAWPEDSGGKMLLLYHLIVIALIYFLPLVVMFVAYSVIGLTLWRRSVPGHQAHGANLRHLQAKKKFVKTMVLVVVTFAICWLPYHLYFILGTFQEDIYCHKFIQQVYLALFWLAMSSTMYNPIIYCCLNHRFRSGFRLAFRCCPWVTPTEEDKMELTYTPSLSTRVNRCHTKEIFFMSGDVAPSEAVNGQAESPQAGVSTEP
The data set is described as follows: Assay of affinity for receptor (3): binding inhibiting activity on NK2 receptor, 125I-neurokinin A, membrane fraction of bovine third stomach inner wall. Particulars: 125I-NKA, 25°C, 3 hours. The procedure: Assay of Affinity for Receptor (3) ... Binding Inhibiting Activity on NK2 Receptor
The method of Paul L. M. Van Giersbergen et al. [Proc. Natl. Acad. Sci. U.S.A., 88, 1661 (1991) was modified for this assay. The membrane fraction containing the receptor was prepared from the inner wall of the bovine third stomach (purchased from Kyoto Chuo Chikusan Fukuseibutsu Oroshi Kyoukai).
The inner wall of the bovine third stomach stored at-80°C was cut to 1 cm X 1 cm or less, and disrupted in 3 liters/kg of 50 mM Tris-HCl buffer (pH 7.4) supplemented with 120 mM sodium chloride, 5 mM potassium chloride, 0.02% BSA and 5% sucrose, using a polytron homogenizer (Kinematika, Germany). Then, the disrupted product was centrifuged at 1,000 X g for 10 minutes. The supernatant was further centrifuged at 45,000 X g for 20 minutes. The precipitate was suspended in 200 ml of 50 mM Tris-HCl buffer (pH 7.4) supplemented with 300 mM potassium chloride, 10 mM ethylenediaminetetraacetic acid, 0.1 mM phenylmethylsulfonium fluoride and 0.02% BSA, and gently stirred under ice cooling for 60 minutes. The suspension was centrifuged at 45,000 X g for 20 minutes. The precipitate was washed with 200 ml of 50 mM Tris-HCl buffer (pH 7.4), and stored in the frozen state at -40°C as a receptor sample.
This sample was suspended in a reaction buffer solution [50 mM Tris-HCl buffer (pH 7.4), 0.02% bovine serum albumin and 4 mM manganese chloride] so as to give a protein concentration of 0.7 mg/ml, and 100 µl thereof was used for reaction. A test sample and ^125I-NKA (0.61 KBq, ^125I-neurokinin A, 81.4 TBq/mmol, Du Pont/NEN Research Products, U.S.A.) were also added, and reacted in 0.2 ml of the reaction buffer solution at 25°C for 3 hours. The reaction mixture was rapidly filtered through a glass filter (GF/B, Whatman, U.S.A.) using a cell harvester (Type 290PHD, Cambridge Technology Inc.) to terminate the reaction, and washed 3 times with 250 µl of 50 mM Tris-HCl buffer (pH 7.4) supplemented with 0.02% bovine serum albumin. The radioactivity left on the filter was measured with a gamma-ray counter. Results are shown in Table 1 as the binding inhibiting activity (IC50, unit: µM) on the NK2 receptor.

The conditions of data set [4]: amide bond; 18-membered ring; HONB/DCC (preactivation); HCl/dioxane; TEA; DMF; 9.5 mM; 3 steps.

Where two headings read alike, the source gives them in different places. Non-standard residues stand in square brackets, D forms with d. Residues, ends and D or L forms follow the SMILES beside them. Groups on a side chain read outwards from the residue. *: point of attachment. NHPhenethyl = c1ccc(CCN*)cc1; X2 = c1ccc2c(c1)CCN2*; NHBn = c1ccc(CN*)cc1

“cyclo[-D-Asp(OBzl)-Asn(NHCH2CH2Ind)-Asp(OBzl)-D-Thg(2)-Leu-D-Trp-]” had a ring closure, crude yield in data set [1] of 90.4%.
`CC(C)C[C@@H]1NC(=O)[C@@H](CC(C)C)NC(=O)[C@H](CC(=O)O)NC(=O)[C@H](CCCNC(=O)c2ccccc2)NC(=O)[C@@H](CC(=O)O)NC(=O)[C@@H](Cc2c[nH]c3ccccc23)NC1=O` [cyclo[-D-Asp-Orn(COPh)-Asp-D-Leu-Leu-D-Trp-]] registered a ring closure, yield of all isomers in data set [2] (from CC(C)C[C@H](NC(=O)[C@@H](CC(C)C)NC(=O)[C@H](CC(=O)OCc1ccccc1)NC(=O)[C@H](CCCNC(=O)c1ccccc1)NC(=O)OC(C)(C)C)C(=O)N[C@H](Cc1c[nH]c2ccccc12)C(=O)N[C@H](CC(=O)OCc1ccccc1)C(=O)O, 5.03 mM) of 48.1%.
The molecule `CC(C)C[C@@H]1NC(=O)[C@@H](c2cccs2)NC(=O)[C@H](CC(=O)O)NC(=O)[C@H](CCC(=O)NCc2ccccc2)NC(=O)[C@@H](CC(=O)O)NC(=O)[C@@H](Cc2c[nH]c3ccccc23)NC1=O` [cyclo[-D-Asp-Gln(Bzl)-Asp-D-Thg(2)-Leu-D-Trp-]] gave a ring closure, yield of all isomers in data set [2] (from CC(C)C[C@H](NC(=O)[C@H](NC(=O)OC(C)(C)C)c1cccs1)C(=O)N[C@H](Cc1c[nH]c2ccccc12)C(=O)N[C@H](CC(=O)OCc1ccccc1)C(=O)N[C@@H](CCC(=O)NCc1ccccc1)C(=O)N[C@@H](CC(=O)OCc1ccccc1)C(=O)O, 5.06 mM) of 8.8%.
On to `CC(C)C[C@@H]1NC(=O)[C@H](CC(=O)O)NC(=O)[C@@H](CC(=O)O)NC(=O)[C@@H](Cc2c[nH]c3ccccc23)NC(=O)[C@H](CC(C)C)NC(=O)[C@@H](CC(C)C)NC1=O` [Example 32, Cyclo[-D-Asp-Asp-Leu-D-Leu-Leu-D-Trp-]] (cyclo(DL[dL]L[dW][dD])), for which the “Binding Activity on ET Receptor (R. act.) ETA” value in data set [3] was determined as 4.0. Moreover, the “Binding Activity on ET Receptor (R. act.) ETB*2” value in the data set on ETB is 7.7. Further, on NK2 receptor, the concentration for half-maximal inhibition (IC50) (as a rule, the concentration that inhibits the measured activity by half) worked out at 2.6 µM.
With `CC(C)C[C@@H]1NC(=O)[C@@H](CC(C)C)NC(=O)[C@H](CC(=O)O)NC(=O)[C@H](CCC(=O)N2CCc3ccccc32)NC(=O)[C@@H](CC(=O)O)NC(=O)[C@@H](Cc2c[nH]c3ccccc23)NC1=O` [Example 76, Cyclo[-D-Asp-Glu(R3)-Asp-D-Leu-Leu-D-Trp-]] (cyclo(D[dL]L[dW][dD]E(X2))), on NK2 receptor, the IC50 came to 10 µM.
As to `CC(C)C[C@@H]1NC(=O)[C@@H](CC(C)C)NC(=O)[C@H](Cc2c[nH]c3ccccc23)NC(=O)[C@H](CC(=O)O)NC(=O)[C@@H](CC(=O)O)NC(=O)[C@@H](Cc2c[nH]c3ccccc23)NC1=O` [Example 33, Cyclo[-D-Asp-Asp-Trp-D-Leu-Leu-D-Trp-]] (cyclo(DW[dL]L[dW][dD])), in data set [3], the “Binding Activity on ET Receptor (R. act.) ETA” value came to 2.9. In addition, in the data set on ETB, the “Binding Activity on ET Receptor (R. act.) ETB*2” value amounted to 5.6. The IC50 on NK2 receptor is 0.35 µM.
The molecule “cyclo[-D-Asp(OBzl)-Hyp(Bzl)-Asp(OBzl)-D-Leu-Leu-D-Trp-]” had a ring closure, isolated yield in data set [4] of 82.6%.
For the molecule `CC(C)C[C@@H]1NC(=O)[C@@H](c2cccs2)NC(=O)[C@H](CC(=O)O)NC(=O)[C@@H]2C[C@@H](OCc3ccccc3)CN2C(=O)[C@@H](CC(=O)O)NC(=O)[C@@H](Cc2c[nH]c3ccccc23)NC1=O` [cyclo[-D-Asp-Hyp(Bzl)-Asp-D-Thg(2)-Leu-D-Trp-]], the ring closure, yield of all isomers in data set [2] (from CC(C)C[C@H](NC(=O)[C@H](NC(=O)OC(C)(C)C)c1cccs1)C(=O)N[C@H](Cc1c[nH]c2ccccc12)C(=O)N[C@H](CC(=O)OCc1ccccc1)C(=O)N1C[C@H](OCc2ccccc2)C[C@H]1C(=O)N[C@@H](CC(=O)OCc1ccccc1)C(=O)O, 4.98 mM) was 5.7%.
For `CC(C)C[C@@H]1NC(=O)[C@@H](CC(C)C)NC(=O)[C@H](CC(=O)O)NC(=O)[C@H](CC(=O)N[C@@H](Cc2c[nH]c3ccccc23)C(=O)NCCc2ccccc2)NC(=O)[C@@H](CC(=O)O)NC(=O)[C@@H](Cc2c[nH]c3ccccc23)NC1=O` [Example 94, Cyclo[-D-Asp-Asp(Trp-NHCH2CH2Ph)-Asp-D-Leu-Leu-D-Trp-]] (cyclo(D([Trp-NHPhenethyl])D[dL]L[dW][dD])), at NK2 receptor, the IC50 stood at 5.8 µM.
Same read-out and setting: under `CC(C)C[C@@H]1NC(=O)[C@@H](CC(C)C)NC(=O)[C@H](CC(=O)O)NC(=O)[C@H](CC(=O)N[C@@H](Cc2c[nH]c3ccccc23)C(=O)NCc2ccccc2)NC(=O)[C@@H](CC(=O)O)NC(=O)[C@@H](Cc2c[nH]c3ccccc23)NC1=O` [Example 92, Cyclo[-D-Asp-Asp(Trp-NHBzl)-Asp-D-Leu-Leu-D-Trp-]] (cyclo(D([Trp-NHBn])D[dL]L[dW][dD])) stands 4 µM.
